In the OligoGym collection one finds 3 h FOB score data, which are given here for 25 substances.

HELM strings list units from the 5' end as sugar, base in round brackets, then linkage (d deoxyribose, r ribose, m 2'-O-methyl, p phosphodiester). Strings are as the collection lists them; they lack the last nucleoside at the 3' end of the tested compound. [moe] = 2'-O-(2-methoxyethyl) (MOE); [sp] = phosphorothioate linkage; [m5C] = 5-methylcytosine

The data set addresses ATXN2. Nature of the data set: mouse, dose not given. Conditions: ASO.

As to “RNA1{[moe](T)[sp].[moe](G)p.[moe]([m5C])p.[moe](A)p.[moe](A)p.d([m5C])[sp].d(T)[sp].d(T)[sp].d(A)[sp].d(A)[sp].d(T)[sp].d(A)[sp].d(A)[sp].d([m5C])[sp].d([m5C])[sp].[moe](T)p.[moe](T)p.[moe](A)[sp].[moe](G)}$$$$ (last 3' nucleoside missing)”, the 3 h FOB score came to 1.75 score 0-7. On to “RNA1{[moe](A)[sp].[moe](G)p.[moe]([m5C])p.[moe](T)p.[moe]([m5C])p.d(T)[sp].d(G)[sp].d(T)[sp].d(T)[sp].d([m5C])[sp].d(G)[sp].d(A)[sp].d(T)[sp].d(G)[sp].d([m5C])[sp].[moe](A)p.[moe](G)p.[moe](G)[sp].[moe](A)}$$$$ (last 3' nucleoside missing)”, for which the 3 h FOB score came to 4 score 0-7. The result for “RNA1{[moe](T)[sp].[moe]([m5C])p.[moe](T)p.[moe](A)p.[moe](T)[sp].d(T)[sp].d(T)[sp].d([m5C])[sp].d(T)[sp].d(T)[sp].d(T)[sp].d(G)[sp].d(T)[sp].[moe]([m5C])p.[moe]([m5C])p.[moe](A)[sp].[moe](G)}$$$$ (last 3' nucleoside missing)” reads 5 score 0-7.

The substance “RNA1{[moe]([m5C])[sp].[moe](G)p.[moe]([m5C])p.[moe](G)p.[moe](G)p.d(T)[sp].d(G)[sp].d(A)[sp].d(A)[sp].d(T)[sp].d(T)[sp].d([m5C])[sp].d(T)[sp].d(G)[sp].d(T)[sp].[moe]([m5C])p.[moe](T)p.[moe]([m5C])[sp].[moe]([m5C])}$$$$ (last 3' nucleoside missing)” came in with a 3 h FOB score of 1 score 0-7. Regarding “RNA1{[moe]([m5C])[sp].[moe](T)p.[moe](T)p.[moe]([m5C])p.[moe](T)p.d(G)[sp].d([m5C])[sp].d(T)[sp].d(A)[sp].d(A)[sp].d([m5C])[sp].d(T)[sp].d(G)[sp].d(G)[sp].d(T)[sp].[moe](T)p.[moe](T)p.[moe](G)[sp].[moe]([m5C])}$$$$ (last 3' nucleoside missing)”, the 3 h FOB score was 2.5 score 0-7. In the case of “RNA1{[moe](T)[sp].[moe](G)p.[moe](T)p.[moe](T)p.[moe](G)p.d([m5C])[sp].d(A)[sp].d([m5C])[sp].d(A)[sp].d(T)[sp].d(A)[sp].d(G)[sp].d(G)[sp].d(T)[sp].d(T)[sp].[moe](A)p.[moe](G)p.[moe](A)[sp].[moe](A)}$$$$ (last 3' nucleoside missing)” it was 4 score 0-7; in that of “RNA1{[moe]([m5C])[sp].[moe]([m5C])p.[moe]([m5C])p.[moe](A)p.[moe](A)p.d(A)[sp].d(G)[sp].d(G)[sp].d(G)[sp].d(T)[sp].d(T)[sp].d(A)[sp].d(A)[sp].d(T)[sp].d(T)[sp].[moe](A)p.[moe](G)p.[moe](G)[sp].[moe](A)}$$$$ (last 3' nucleoside missing)”, 1 score 0-7; in that of “RNA1{[moe](A)[sp].[moe](T)p.[moe](T)p.[moe](T)p.[moe](T)p.d(G)[sp].d(A)[sp].d(A)[sp].d(T)[sp].d(T)[sp].d(A)[sp].d([m5C])[sp].d(A)[sp].d(A)[sp].d(T)[sp].[moe](G)p.[moe]([m5C])p.[moe](G)[sp].[moe](G)}$$$$ (last 3' nucleoside missing)”, 0 score 0-7. In the case of “RNA1{[moe](G)[sp].[moe](T)p.[moe](A)p.[moe]([m5C])p.[moe](T)[sp].d(T)[sp].d(T)[sp].d(T)[sp].d([m5C])[sp].d(T)[sp].d([m5C])[sp].d(A)[sp].d(T)[sp].[moe](G)p.[moe](T)p.[moe](G)[sp].[moe]([m5C])}$$$$ (last 3' nucleoside missing)” it was 1.25 score 0-7. The result for “RNA1{[moe](G)[sp].[moe]([m5C])p.[moe](A)p.[moe]([m5C])p.[moe](A)p.d(T)[sp].d(A)[sp].d(G)[sp].d(G)[sp].d(T)[sp].d(T)[sp].d(A)[sp].d(G)[sp].d(A)[sp].d(A)[sp].[moe](T)p.[moe](T)p.[moe](T)[sp].[moe](T)}$$$$ (last 3' nucleoside missing)” reads 4 score 0-7; that for “RNA1{[moe](G)[sp].[moe](A)p.[moe](T)p.[moe](G)p.[moe](T)p.d(T)[sp].d(T)[sp].d([m5C])[sp].d(A)[sp].d(T)[sp].d(T)[sp].d(G)[sp].d(G)[sp].d(G)[sp].d(T)[sp].[moe](T)p.[moe](T)p.[moe](A)[sp].[moe](A)}$$$$ (last 3' nucleoside missing)”, 6.25 score 0-7; that for “RNA1{[moe](G)[sp].[moe](G)p.[moe](T)p.[moe](G)p.[moe](G)p.d(T)[sp].d(G)[sp].d(T)[sp].d(G)[sp].d([m5C])[sp].d(G)[sp].d([m5C])[sp].d(A)[sp].d(T)[sp].d(G)[sp].[moe](T)p.[moe](A)p.[moe](G)[sp].[moe](A)}$$$$ (last 3' nucleoside missing)”, 7 score 0-7. In turn, “RNA1{[moe](T)[sp].[moe]([m5C])p.[moe](T)p.[moe](G)p.[moe](T)p.[moe](A)p.d([m5C])[sp].d(T)[sp].d(T)[sp].d(T)[sp].d(T)[sp].d([m5C])[sp].d(T)[sp].d([m5C])[sp].d(A)[sp].d(T)[sp].[moe](G)p.[moe](T)[sp].[moe](G)}$$$$ (last 3' nucleoside missing)” yielded a 3 h FOB score of 1 score 0-7.

In turn, “RNA1{[moe](A)[sp].[moe](T)p.[moe](G)p.[moe]([m5C])p.[moe](A)p.d(G)[sp].d(T)[sp].d(A)[sp].d([m5C])[sp].d(A)[sp].d(A)[sp].d([m5C])[sp].d(A)[sp].d(T)[sp].d(T)[sp].[moe]([m5C])p.[moe]([m5C])p.[moe](A)[sp].[moe](T)}$$$$ (last 3' nucleoside missing)” displayed a 3 h FOB score of 0 score 0-7. The result for “RNA1{[moe](G)[sp].[moe](T)p.[moe](T)p.[moe]([m5C])p.[moe](A)p.d(T)[sp].d(T)[sp].d([m5C])[sp].d([m5C])[sp].d(A)[sp].d(G)[sp].d(A)[sp].d(T)[sp].d(T)[sp].d(T)[sp].[moe]([m5C])p.[moe](A)p.[moe]([m5C])[sp].[moe](T)}$$$$ (last 3' nucleoside missing)” reads 4 score 0-7.

On to “RNA1{[moe]([m5C])[sp].[moe](T)p.[moe](G)p.[moe](G)p.[moe](A)p.d(T)[sp].d(T)[sp].d([m5C])[sp].d(T)[sp].d(G)[sp].d(T)[sp].d(A)[sp].d([m5C])[sp].d(T)[sp].d(T)[sp].[moe](T)p.[moe](T)p.[moe]([m5C])[sp].[moe](T)}$$$$ (last 3' nucleoside missing)”, for which the 3 h FOB score came out at 5.25 score 0-7. The result for “RNA1{[moe](G)[sp].[moe](G)p.[moe](A)p.[moe](T)p.[moe](A)p.d([m5C])[sp].d(A)[sp].d(A)[sp].d(A)[sp].d(T)[sp].d(T)[sp].d([m5C])[sp].d(T)[sp].d(A)[sp].d(G)[sp].[moe](G)p.[moe]([m5C])p.[moe]([m5C])[sp].[moe](A)}$$$$ (last 3' nucleoside missing)” reads 4 score 0-7; that for “RNA1{[moe](A)[sp].[moe]([m5C])p.[moe](T)p.[moe]([m5C])p.[moe](T)p.d([m5C])[sp].d([m5C])[sp].d(A)[sp].d(T)[sp].d(T)[sp].d(A)[sp].d(T)[sp].d(T)[sp].d(T)[sp].d([m5C])[sp].[moe](T)p.[moe](T)p.[moe]([m5C])[sp].[moe](A)}$$$$ (last 3' nucleoside missing)”, 1 score 0-7; that for “RNA1{[moe]([m5C])[sp].[moe](T)p.[moe](G)p.[moe](T)p.[moe](G)p.d(A)[sp].d(G)[sp].d(T)[sp].d(T)[sp].d([m5C])[sp].d(A)[sp].d([m5C])[sp].d([m5C])[sp].d(T)[sp].d(G)[sp].[moe]([m5C])p.[moe](A)p.[moe](T)[sp].[moe]([m5C])}$$$$ (last 3' nucleoside missing)”, 1 score 0-7. As for “RNA1{[moe](T)[sp].[moe]([m5C])p.[moe](T)p.[moe](G)p.[moe]([m5C])p.d(T)[sp].d(A)[sp].d(A)[sp].d([m5C])[sp].d(T)[sp].d(G)[sp].d(G)[sp].d(T)[sp].d(T)[sp].d(T)[sp].[moe](G)p.[moe]([m5C])p.[moe]([m5C])[sp].[moe]([m5C])}$$$$ (last 3' nucleoside missing)”, the 3 h FOB score was 3 score 0-7.

“RNA1{[moe](T)[sp].[moe](G)p.[moe](T)p.[moe](A)p.[moe]([m5C])p.d(T)[sp].d(T)[sp].d([m5C])[sp].d(A)[sp].d([m5C])[sp].d(A)[sp].d(T)[sp].d(T)[sp].d(T)[sp].d(G)[sp].[moe](G)p.[moe](A)p.[moe](G)[sp].[moe]([m5C])}$$$$ (last 3' nucleoside missing)” showed a 3 h FOB score of 2 score 0-7. The result for “RNA1{[moe](T)[sp].[moe]([m5C])p.[moe](A)p.[moe](T)p.[moe](G)p.d(G)[sp].d([m5C])[sp].d(T)[sp].d([m5C])[sp].d([m5C])[sp].d(A)[sp].d(A)[sp].d(T)[sp].d(A)[sp].d(T)[sp].[moe]([m5C])p.[moe](G)p.[moe](G)[sp].[moe]([m5C])}$$$$ (last 3' nucleoside missing)” reads 2.25 score 0-7.

“RNA1{[moe](T)[sp].[moe](G)p.[moe]([m5C])p.[moe](T)p.[moe](A)p.d(A)[sp].d([m5C])[sp].d(T)[sp].d(G)[sp].d(G)[sp].d(T)[sp].d(T)[sp].d(T)[sp].d(G)[sp].d([m5C])[sp].[moe]([m5C])p.[moe]([m5C])p.[moe](T)[sp].[moe](T)}$$$$ (last 3' nucleoside missing)” had a 3 h FOB score of 7 score 0-7. The result for “RNA1{[moe]([m5C])[sp].[moe](A)p.[moe]([m5C])p.[moe](A)[sp].[moe](G)[sp].d(T)[sp].d(T)[sp].d(T)[sp].d([m5C])[sp].d(A)[sp].d([m5C])[sp].d(T)[sp].d(A)[sp].d(G)[sp].d(G)[sp].[moe](T)p.[moe](T)p.[moe]([m5C])[sp].[moe](T)}$$$$ (last 3' nucleoside missing)” reads 4 score 0-7; that for “RNA1{[moe](G)[sp].[moe]([m5C])p.[moe](A)p.[moe](A)p.[moe](A)p.d(G)[sp].d(A)[sp].d([m5C])[sp].d(T)[sp].d(T)[sp].d(T)[sp].d(G)[sp].d(A)[sp].d(A)[sp].d(A)[sp].[moe](T)p.[moe]([m5C])p.[moe](T)[sp].[moe]([m5C])}$$$$ (last 3' nucleoside missing)”, 0 score 0-7.
